Test results published in patent publication US6358706B1, “DNA encoding human alpha1G-C T-Type calcium channel” (Ortho-McNeil Pharmaceutical, Inc., priority 1999, dated 2002).
Like-named read-outs stand apart in the source and are kept apart here. Each block holds one compound with its values, some of them ahead of it.

How the values were obtained:
[1] = molecular target: T1, human calcium channel alpha1G-c (Homo sapiens, UniProt O43497); experiment: two-electrode voltage clamp of Xenopus oocytes expressing human calcium channel alpha1G-c; format: cell-based; conditions: for block of peak human alpha1G-c currents / effect on peak human alpha1G-c currents: 100 μM; for block of peak current: 200 μM, clamped at −100 mV between test pulses
T1 construct: first reported cloning of a full length DNA molecule encoding the; expressed in transfected cells; host or cells: Xenopus laevis oocytes injected with cRNA transcribed from pGEM HE
Description: Xenopus laevis oocytes were prepared and injected using standard methods previously described and known in the art (Fraser, S. P. et al. (1993)). Ovarian lobes from adult female Xenopus laevis (Nasco, Fort Atkinson, Wis.) were teased apart, rinsed several times in nominally Ca-free saline containing: 82.5 mM NaCl, 2.5 mM KCl, 1 mM MgCl2, 5 mM HEPES, adjusted to pH 7.0 with NaOH (OR-2), and gently shaken in OR-2 containing 0.2% collagenase Type 1 (ICN Biomedicals, Aurora, Ohio) for 2-5 hours. When approximately 50% of the follicular layers were removed, Stage V and VI oocytes were selected and rinsed in media consisting of 75% OR-2 and 25% ND-96. The ND-96 contained: 100 mM NaCl, 2 mM KCl, 1 mM MgCl2, 1.8 mM CaCl2, 5 mM HEPES, 2.5 mM Na pyruvate, gentamicin (50 ug/ml), adjusted to pH 7.0 with NaOH. […] The synthesized cRNA was precipitated with ammonium acetate and isopropanol, and resuspended in 50 μl nuclease-free water. cRNA was quantified using formaldehyde gels (1% agarose, 1×MOPS , 3% formaldehyde) against RNA markers (Gibco BRL, 0.24-9.5 Kb).
Oocytes were injected with 50 nl of the human calcium channel alpha1G-c cRNA (about 600 ng). Control oocytes were injected with 50 nl of water. Oocytes were incubated in ND-96 before analysis for expression of the human calcium channel alpha1G-c. Incubations and collagenase digestion were carried out at room temperature. Injected oocytes were maintained in 48 well cell culture clusters (Costar; Cambridge, Mass.) at 18° C. Whole cell agonist-induced currents were measured 3-6 days after injection with a conventional two-electrode voltage clamp (GeneClamp500, Axon Instruments, Foster City, Calif.) using standard methods previously described and known in the art (Dascal, N. (1987)). The microelectrodes were filled with 3 M KCl, which had resistances of 1 and 2 MΩ. Cells were continuously perfused with ND96 at 2-5 mi/min at room temperature unless indicated. In some experiments, cells were bathed in a 40 mM Ba saline containing (in mM): 40 BaCl2, 2 KCl, 36 TEA-Cl, 5 4-AP and 5 HEPES, pH 7.6. Membrane voltage was clamped at −100 mV unless indicated.
Oocytes were bathed in ND96,

mouse alpha1G = conditions: cited from earlier work
human alpha1H = molecular target: T2, human alpha1H (Homo sapiens, UniProt O95180); conditions: cited from earlier work; for IC50: expressed in oocytes
T2 construct: host or cells: oocytes

T-type calcium channels = conditions: range over cell types; read-out: EC50's depending on the cell type; cited from earlier work
[2] = test system: T type currents from guinea pig or rat ventrobasal thalamic neurons; design: maximal block: dose or concentration left out as unconfirmed; conditions: cited from earlier work
[3] = test system: LVCC in hippocampal CA3 neurons; conditions: 250 μM or 1 mM; cited from earlier work
[4] = test system: T-type calcium channels from dorsal root ganglion neurons; conditions: neurons from one-day-old rats, cited from earlier work
L-type current = conditions: neurons from one-day-old rats; cited from earlier work

T2 sequence (O95180 whole entry): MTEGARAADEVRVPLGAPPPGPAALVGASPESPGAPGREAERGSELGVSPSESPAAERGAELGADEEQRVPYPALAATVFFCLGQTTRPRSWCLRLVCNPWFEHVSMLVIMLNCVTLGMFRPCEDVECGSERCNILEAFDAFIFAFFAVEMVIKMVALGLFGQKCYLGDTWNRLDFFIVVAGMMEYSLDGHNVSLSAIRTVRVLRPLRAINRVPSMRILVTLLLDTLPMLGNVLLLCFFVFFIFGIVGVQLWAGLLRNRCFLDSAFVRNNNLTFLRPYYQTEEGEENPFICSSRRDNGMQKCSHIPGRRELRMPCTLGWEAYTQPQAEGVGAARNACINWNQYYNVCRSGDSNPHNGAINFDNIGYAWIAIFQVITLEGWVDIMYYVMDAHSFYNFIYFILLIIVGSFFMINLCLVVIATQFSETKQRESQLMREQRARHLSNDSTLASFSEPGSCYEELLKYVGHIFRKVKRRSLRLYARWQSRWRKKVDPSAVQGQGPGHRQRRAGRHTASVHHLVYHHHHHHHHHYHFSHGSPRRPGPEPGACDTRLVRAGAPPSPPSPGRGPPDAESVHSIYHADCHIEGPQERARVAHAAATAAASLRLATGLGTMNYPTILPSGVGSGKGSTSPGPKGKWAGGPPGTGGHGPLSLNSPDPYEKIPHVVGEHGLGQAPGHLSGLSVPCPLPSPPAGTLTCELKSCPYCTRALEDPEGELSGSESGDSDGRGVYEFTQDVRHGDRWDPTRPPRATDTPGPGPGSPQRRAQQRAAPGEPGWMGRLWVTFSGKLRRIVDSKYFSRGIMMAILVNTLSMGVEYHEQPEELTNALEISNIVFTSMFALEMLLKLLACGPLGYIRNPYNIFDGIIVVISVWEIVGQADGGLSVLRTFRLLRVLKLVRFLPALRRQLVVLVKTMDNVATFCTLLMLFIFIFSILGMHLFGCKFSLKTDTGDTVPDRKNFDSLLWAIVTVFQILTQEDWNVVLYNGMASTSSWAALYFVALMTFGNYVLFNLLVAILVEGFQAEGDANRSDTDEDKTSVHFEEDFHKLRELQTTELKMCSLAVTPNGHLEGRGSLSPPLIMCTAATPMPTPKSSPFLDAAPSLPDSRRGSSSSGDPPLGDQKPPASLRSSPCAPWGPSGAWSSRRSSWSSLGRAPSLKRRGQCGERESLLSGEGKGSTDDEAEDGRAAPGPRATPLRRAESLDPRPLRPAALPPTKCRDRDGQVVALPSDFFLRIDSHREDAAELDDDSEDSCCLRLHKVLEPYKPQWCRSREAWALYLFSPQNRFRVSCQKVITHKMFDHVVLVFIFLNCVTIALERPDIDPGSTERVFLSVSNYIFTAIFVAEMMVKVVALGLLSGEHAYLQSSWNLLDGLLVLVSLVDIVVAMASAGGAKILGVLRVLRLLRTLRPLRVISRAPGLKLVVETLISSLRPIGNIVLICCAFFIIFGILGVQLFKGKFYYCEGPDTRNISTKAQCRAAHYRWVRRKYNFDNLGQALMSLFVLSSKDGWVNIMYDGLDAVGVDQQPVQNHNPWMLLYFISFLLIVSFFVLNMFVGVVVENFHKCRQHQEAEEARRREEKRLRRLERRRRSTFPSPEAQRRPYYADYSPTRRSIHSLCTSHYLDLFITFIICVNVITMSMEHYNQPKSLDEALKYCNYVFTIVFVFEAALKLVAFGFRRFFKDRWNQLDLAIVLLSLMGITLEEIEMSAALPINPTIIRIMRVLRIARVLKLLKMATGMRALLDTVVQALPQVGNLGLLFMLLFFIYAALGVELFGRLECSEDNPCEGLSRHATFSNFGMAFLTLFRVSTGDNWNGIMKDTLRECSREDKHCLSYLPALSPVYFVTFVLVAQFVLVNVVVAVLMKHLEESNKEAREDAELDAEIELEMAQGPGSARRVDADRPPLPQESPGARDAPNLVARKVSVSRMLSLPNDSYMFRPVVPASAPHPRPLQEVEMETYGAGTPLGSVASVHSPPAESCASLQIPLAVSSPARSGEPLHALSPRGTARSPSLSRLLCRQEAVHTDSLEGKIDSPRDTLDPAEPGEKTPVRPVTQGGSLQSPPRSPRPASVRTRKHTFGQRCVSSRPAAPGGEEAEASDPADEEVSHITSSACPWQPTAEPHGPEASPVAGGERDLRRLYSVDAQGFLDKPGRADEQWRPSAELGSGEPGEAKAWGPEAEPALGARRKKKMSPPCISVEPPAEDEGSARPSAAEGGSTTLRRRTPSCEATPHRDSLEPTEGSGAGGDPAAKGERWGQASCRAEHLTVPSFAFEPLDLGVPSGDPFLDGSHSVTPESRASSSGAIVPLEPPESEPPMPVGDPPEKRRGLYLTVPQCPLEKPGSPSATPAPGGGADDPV
T1 sequence (O43497 1-2273 isoform O43497-6): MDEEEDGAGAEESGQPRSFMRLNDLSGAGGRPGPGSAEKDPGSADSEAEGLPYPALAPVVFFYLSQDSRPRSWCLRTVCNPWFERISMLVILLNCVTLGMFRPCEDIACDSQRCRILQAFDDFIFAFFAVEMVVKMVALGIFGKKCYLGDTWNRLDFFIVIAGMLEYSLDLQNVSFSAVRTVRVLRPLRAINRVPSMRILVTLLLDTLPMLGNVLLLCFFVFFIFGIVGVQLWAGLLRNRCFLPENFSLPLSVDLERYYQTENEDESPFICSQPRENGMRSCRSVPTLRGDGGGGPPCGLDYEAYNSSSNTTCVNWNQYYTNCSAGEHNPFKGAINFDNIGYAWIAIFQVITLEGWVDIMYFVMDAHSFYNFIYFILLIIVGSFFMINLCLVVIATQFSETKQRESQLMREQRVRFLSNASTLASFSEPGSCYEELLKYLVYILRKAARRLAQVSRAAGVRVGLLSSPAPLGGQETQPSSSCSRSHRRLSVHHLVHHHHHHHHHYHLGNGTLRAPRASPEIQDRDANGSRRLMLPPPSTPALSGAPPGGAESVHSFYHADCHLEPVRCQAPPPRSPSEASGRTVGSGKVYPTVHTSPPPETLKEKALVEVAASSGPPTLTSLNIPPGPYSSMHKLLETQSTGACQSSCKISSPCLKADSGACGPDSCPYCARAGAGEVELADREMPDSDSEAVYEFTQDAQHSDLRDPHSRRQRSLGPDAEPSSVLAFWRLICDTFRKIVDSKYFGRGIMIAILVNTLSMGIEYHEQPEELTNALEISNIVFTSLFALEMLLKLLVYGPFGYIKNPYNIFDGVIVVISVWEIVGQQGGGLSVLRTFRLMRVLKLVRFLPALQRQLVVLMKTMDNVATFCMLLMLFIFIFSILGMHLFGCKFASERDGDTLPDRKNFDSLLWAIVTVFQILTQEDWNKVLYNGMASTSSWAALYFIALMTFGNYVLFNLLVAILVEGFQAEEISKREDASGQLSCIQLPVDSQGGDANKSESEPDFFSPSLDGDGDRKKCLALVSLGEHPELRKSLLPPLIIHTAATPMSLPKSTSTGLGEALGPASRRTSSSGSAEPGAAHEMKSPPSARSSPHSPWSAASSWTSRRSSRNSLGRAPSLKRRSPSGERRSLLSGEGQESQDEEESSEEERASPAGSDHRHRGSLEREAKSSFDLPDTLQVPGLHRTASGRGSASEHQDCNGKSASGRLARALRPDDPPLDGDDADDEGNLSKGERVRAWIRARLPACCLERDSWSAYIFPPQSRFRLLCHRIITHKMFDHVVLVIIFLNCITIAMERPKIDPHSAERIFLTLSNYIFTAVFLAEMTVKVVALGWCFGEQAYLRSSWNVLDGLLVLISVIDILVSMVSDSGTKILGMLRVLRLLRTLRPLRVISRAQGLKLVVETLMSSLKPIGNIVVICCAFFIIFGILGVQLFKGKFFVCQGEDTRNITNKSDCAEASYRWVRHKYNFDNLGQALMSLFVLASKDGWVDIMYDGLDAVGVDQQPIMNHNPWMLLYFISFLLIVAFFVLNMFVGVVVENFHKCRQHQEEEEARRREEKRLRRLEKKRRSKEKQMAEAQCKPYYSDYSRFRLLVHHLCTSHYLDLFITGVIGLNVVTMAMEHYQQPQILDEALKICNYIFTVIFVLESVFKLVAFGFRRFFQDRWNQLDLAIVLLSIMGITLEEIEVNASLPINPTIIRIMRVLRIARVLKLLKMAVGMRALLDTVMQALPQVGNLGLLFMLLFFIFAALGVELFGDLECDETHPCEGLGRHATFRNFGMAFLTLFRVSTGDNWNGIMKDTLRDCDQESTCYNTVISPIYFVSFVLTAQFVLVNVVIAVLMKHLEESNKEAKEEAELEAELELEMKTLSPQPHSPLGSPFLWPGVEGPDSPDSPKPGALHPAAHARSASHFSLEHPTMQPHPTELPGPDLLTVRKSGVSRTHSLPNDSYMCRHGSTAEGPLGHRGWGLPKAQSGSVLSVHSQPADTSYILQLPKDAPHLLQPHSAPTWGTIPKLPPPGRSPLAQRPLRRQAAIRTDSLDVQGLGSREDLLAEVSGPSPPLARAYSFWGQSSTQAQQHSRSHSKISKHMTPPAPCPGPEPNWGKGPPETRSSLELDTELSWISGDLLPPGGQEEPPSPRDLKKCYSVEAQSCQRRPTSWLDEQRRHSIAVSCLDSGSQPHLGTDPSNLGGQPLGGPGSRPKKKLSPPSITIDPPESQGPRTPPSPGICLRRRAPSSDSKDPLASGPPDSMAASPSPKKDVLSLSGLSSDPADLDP

block of peak human alpha1G-c currents [1]: 30+/−3%
Structure (SMILES): O=C(O)c1c2ccccc2cc2ccccc12 [9-AC, anthracene-9-carboxylic acid]

Structure (SMILES): [Cd+2] [Cd^2+]
block of peak human alpha1G-c currents [1]: 44+/−9%

Structure (SMILES): O=S(=O)(O)c1cc(N=C=S)ccc1C=Cc1ccc(N=C=S)cc1S(=O)(=O)O [DIDS, 4,4′-diisothiocyanatostilbene-2.2′-disulfonic acid]
block of peak human alpha1G-c currents [1]: 16+/−13%
effect on peak human alpha1G-c currents [1]: no effect

block of human alpha1G-c currents ([1]; 20 μM): 22+/−6%
block of peak human alpha1G-c currents [1]: 55+/−7%
block of peak current [1]: 89+/−7%
sensitivity of human alpha1G-c to block ([1]; expressed in oocytes): blocked halpha1G-c currents
Structure (SMILES): O=C(O)c1cc([N+](=O)[O-])ccc1NCCCc1ccccc1 [NPPB, 5-Nitro-2-(3-phenylpropylamino)benzoic acid]

Structure (SMILES): [Cl][Ni][Cl] [NiCl2]
block of peak current [1]: 25+/−6%
current blocked relative to 200 μM ([1]; 1 mM, same cell): about twice the current blocked by 200 μM Ni^2+
sensitivity of human alpha1G-c to block ([1]; expressed in oocytes): relatively insensitive
sensitivity (mouse alpha1G; as opposed to other T-type channels): very low sensitivity
IC50 (human alpha1H): ~6 µM

Structure (SMILES): N=C(N)NC(=O)c1nc(Cl)c(N)nc1N [amiloride]
block of peak currents [1]: 23+/−4%
sensitivity of human alpha1G-c to block [1]: sensitive
IC50 (human alpha1H): ~20 µM
EC50 (T-type calcium channels): ≥ 50 µM

reversible block of peak currents ([1]; 600 μM, −100 mV between voltage pulses, ND96 and Ba2+ salines similar): 26+/−−3%
sensitivity of human alpha1G-c to block ([1]; expressed in oocytes): sensitive
Structure (SMILES): CCC1(C)CC(=O)NC1=O (stereo not shown) [ethosuximide]
effect on T-currents ([2]; in 25% of the TCs tested): no effect
sensitivity of all components of the LVCC [3]: insensitive
maximal block [4]: 100%
Kd ([4]; read-out: Kd for T-current): 7 µM
Kd (L-type current): 15 µM
block of human alpha1H currents (human alpha1H; 300 μM): ~7%
sensitivity (human alpha1H): insensitive

Structure (SMILES): COCC(=O)O[C@]1(CCN(C)CCCc2nc3ccccc3[nH]2)CCc2cc(F)ccc2[C@@H]1C(C)C [mibefradil, (1S,2S)-2-[2-[[3-(1H-benzimidazol-2-yl)propyl]methyl-amino]ethyl]-6-fluoro-1-isopropyl-1,2,3,4-tetrahydronaphthalen-2-yl methoxyacetate]
IC50 (mouse alpha1G; most prominent (low affinity) site): ~0.4 µM
maximal block [2]: ~40%
IC50 ([2]; majority of T type currents): ~500 µM

block of peak human alpha1G-c currents [1]: 0+/−2%
effect on peak human alpha1G-c currents [1]: no effect
Structure (SMILES): O=C(O)c1cccnc1Nc1cccc(C(F)(F)F)c1 [niflumic acid]
